Data taken from patent US12337033B2, “Encapsulated glycolipid antigens for treatment of neoplastic diseases” (EnGeneIC Molecular Delivery Pty Ltd, priority 2019, dated 2025).

Assays:
[1] = system: many different tumor cell lines; assay: Cytotoxicity assays against tumor cell lines; assay type: cell-based
JAWSII cells = assay: αGC surface presentation through CD1d on JAWSII cells (anti-alpha GalCer:mCD1d staining, flow cytometry); assay type: cell-based, mouse; details: 8h-48h post-treatment, compared to minicells alone and untreated, free αGC 1000 ng/ml
Procedure: Cells used: Mouse immature […] JAWSII (ATCC® CRL-11904™).
Preparation Perfecta3D 96-Well Hanging Drop Plate: The upper and lower side tray reservoirs of the 3D hanging drop plates were filled with melted 1% agarose using a P1000 pipette (1 g agarose dissolve in 100 ml of water, dissolved in microwave and allowed to cool to ˜50° C.). The plates were allowed to dry and settle at room temperature for at least 30 min. The outside wells of the hanging drop plate were then filled with 50 μl of sterile cell culture media (without cells)/well.
Treatment of JAWSII spheroids with EDVαGC: JAWSII cells were treated with 1000 ng/ml aGC (positive control); empty minicells and minicellsαGC compared to untreated cells and collected at 8h, 16h, 24h and 48h post-treatment (FIGS. 8A-8D).
Dissociation of JAWSII cells into single-cell suspensions: JAWSII cells were grown as semi-suspension cultures in T25 or T75 flasks. The culture media was carefully collected into a sterile 50 ml tube by pipetting using a pipette-aid and the culture surface of the flask was washed 2× with 5 ml of sterile PBS, and collected in the same sterile 50 ml tube after each wash. […] To determine the cell number, 10 μl of the cell suspension was mixed with 10 μl of trypan blue solution and analyzed using an EVE automated cell counter. […]

Row | Compound | drug resistance in tumor cell lines ([1]; a number of different tumor cell lines) | potency compared with a range of conventional chemotherapeutics ([1]; cytotoxicity assays, many different tumor cell lines) | staining with anti-GalCer:mCD1d (α-GC presentation on the cell surface by CD1d) (JAWSII cells)
1 | COc1cccc2c1C(=O)c1c(O)c3c(c(O)c1C2=O)C[C@@](O)(C(=O)CO)C[C@@H]3OC1CC2C(OC3C(OC)OCCN23)C(C)O1 (stereo partly drawn) [PNU159682, 3′-deamino-3″,4′-anhydro-[2″(S)-methoxy-3″(R)-oxy-4″-morpholinyl] doxorubicin] | appears to overcome drug resistance | much more potent | 
2 | CCCCCCCCCCCCCCCCCCCCCCCCCC(=O)N[C@@H](CO[C@H]1O[C@H](CO)[C@H](O)[C@H](O)[C@H]1O)[C@H](O)[C@H](O)CCCCCCCCCCCCCC [free α-GC, α-galactosylceramide] |  |  | clear shift
